Test results reported in PMC7721897, “Metabolism and pharmacokinetics of a novel polyphenol fatty acid ester phloridzin docosahexaenoate in Balb/c female mice” (Scientific Reports, 2020).
Like-named read-outs stand apart in the source and are kept apart here.

What was measured:
[1] = Serum pharmacokinetics after intraperitoneal injection; assay type: in vivo, Balb/c female mice; settings: 100 mg/kg intraperitoneal; for Cmax: read-out: Maximum serum concentration (Cmax)
Protocol: Figure 4 Intraperitoneal administration of PZ-DHA results in absorption into the systemic circulation of Balb/c female mice. PZ-DHA (100 mg/kg) was administered by intraperitoneal injection to Balb/c female mice. Blood collection was performed and serum was separated. PZ-DHA was identified and quantified using a calibration curve (R^2 = 0.99) generated using a standard series of PZ-DHA concentrations made in mouse serum. PZ-DHA concentration was plotted against time. The elimination rate of PZ-DHA was determined using a semi-log curve of PZ-DHA concentration vs. time curve.
Pharmacokinetic parameters and in vivo generation of PZ-DHA metabolites were studied using Balb/c female mice. Mice were randomly divided into six groups (n = 4/group) and PZ-DHA (100 mg/kg) was administered by intraperitoneal injection. For each mouse, a single blood collection was performed by cardiac puncture at one of six different time points (t = 15, 30, 60, 90, 120, and 240 min). At the end of blood collection, mice were euthanized by cervical dislocation and organs (liver, lungs, kidneys, spleen, and brain) were harvested. Blood samples were allowed to clot by leaving undisturbed at room temperature for 1 h, and serum was separated by centrifuging at 2000×g for 10 min at 4 °C. The serum was carefully removed and stored on ice until further processing. Serum proteins were precipitated by incubating an aliquot of serum with a mixture of acetonitrile:acetone (80:20) containing 0.1 mg/mL quercetin (internal standard) at 4 °C overnight. The supernatant was separated by centrifuging at 14,000×g for 10 min at 4 °C. Excess solvent was evaporated using nitrogen flush and mixed with methanol and filtered. PZ-DHA-metabolites in the filtrate were identified using a UPLC-ESI–MS/MS (Waters Limited, Mississauga, ON, Canada). Organs were homogenized in PBS (1:5 w/v). Supernatants were collected by centrifugation at 14,000 × g for 15 min at 4 °C. Proteins were precipitated by incubating in acetonitrile:acetone (80:20) containing 0.1 mg/mL quercetin (internal standard) at 4 °C overnight. Supernatants were treated as explained above, and PZ-DHA and/or PZ-DHA-metabolites were identified.
A calibration curve (R^2 = 0.99) generated using a standard series of PZ-DHA concentrations prepared in mouse serum (spiked with 0.1 mg/mL quercetin) was used for the quantification of PZ-DHA. The average PZ-DHA concentrations were plotted against time. The maximum serum concentration of serum (Cmax) and the time to reach Cmax (Tmax) were read directly from the graph. The linear trapezoidal method was used to calculate the area under the curve (AUC) from t = 0 to infinity, the biological half-life of PZ-DHA (t1/2), determined using the plotted curve in Graphpad Prism software (version 5; La Jolla, CA, USA). The clearance following IP administration was determined by non-compartmental analysis using the relationship CL/F = D/AUC. The elimination rate constant λ was determined by linear regression of the elimination phase of the semi-log transformed concentration versus time curve. The t1/2 was calculated using the formula 0.693/λ and the volume of distribution Vd/F from the formula Vd/F = CL/(F*λ).

4T1 breast cancer cells = test system: 4T1 breast cancer cells; set-up: method as in PMID 31473253; settings: intraperitoneal, 100 mg/kg every 2 days for 10 days; cited from earlier work
[2] = test system: mammary carcinoma cells (MDA-MB-231, MDA-MB-468, 4T1, MCF-7) and MCF-10A; set-up: method as in PMID 27535497; settings: cited from earlier work

**Q.** With `CC/C=C\C/C=C\C/C=C\C/C=C\C/C=C\C/C=C\CCC(=O)OC[C@H]1O[C@@H](Oc2cc(O)cc(O)c2C(=O)CCc2ccc(O)cc2)[C@H](O)[C@@H](O)[C@@H]1O` [PZ-DHA, phloridzin docosahexaenoate] as the compound, how does the “Clearance (CL/F)” value [1] read?
**A.** 1.37 mL/min

**Q.** What about the “Volume of distribution (Vd/F)” value [1] of the same compound?
**A.** 56.5 mL

**Q.** What about the “Biological half-life (T1/2)” value ([1]; serum) of the same compound?
**A.** 28.7 min

**Q.** And the Cmax ([1]; serum)?
**A.** 23.4 µM

**Q.** And the “serum detectability at the last measured time” value ([1]; 240 min)?
**A.** remained detectable

**Q.** What about the Tmax ([1]; female, Balb/c, mouse, ip, serum, read-out: Time to reach maximum serum concentration (Tmax) (converted)) of the same compound?
**A.** 60 min

**Q.** What about the half-life ([1]; female, Balb/c, mouse, serum, ip, 100 mg/kg, serum, read-out: Biological half-life (T1/2)) of the same compound?
**A.** 28 min

**Q.** And the Cmax ([1]; female, Balb/c, mouse, serum, ip, 100 mg/kg, serum)?
**A.** 23.7 µM

**Q.** And the Vd/F ([1]; female, Balb/c, mouse, serum, ip, 100 mg/kg, read-out: Volume of distribution (Vd/F))?
**A.** 0.057 L

**Q.** What about the AUC ([1]; female, Balb/c, mouse, serum, ip, t = 0 to infinity, read-out: The area under the curve (AUC) (converted)) of the same compound?
**A.** 36.6 µM·h

**Q.** What about the k el ([1]; female, Balb/c, mouse, serum, ip, read-out: Elimination rate (λz) (converted)) of the same compound?
**A.** 0.0004 s⁻¹

**Q.** What about the concentration at 15 min ([1]; female, Balb/c, mouse, serum, ip, 15 min, read-out: serum concentration at the 1st measured time point) of the same compound?
**A.** 0.9 ± 0.4 µM

**Q.** And the “tumor growth and metastasis of 4T1 breast cancer cells” value (4T1 breast cancer cells)?
**A.** inhibits tumor growth and metastasis

**Q.** And the “selective cytotoxicity, malignant versus non-malignant cells” value [2]?
**A.** selectively kills mammary carcinoma cells
